tested on: aconitine-induced ventricular arrhythmias; assay: aconitine test in rats (antiarrhythmic activity); type: in vivo, male rats; details: Rattus norvegicus, iv, read-out: ED50 (dose which increases by 50% the perfusion time of aconitine relative to control animals)
Protocol: The principle of the technique rests on the time required for inducing ventricular arrhythmias with aconitine slowly perfused in rats. An antiarrhythmic substance delays the appearance of the arrhythmia, and this delay is proportional to the activity of the substance.
Groups of 5 male rats are used. Individual anaesthetisation is carried out (10% urethane: 1 g/kg/ip) to permit catheterisation of the vein of the penis. The electrocardiogram is recorded. At time T=O, the substance studied is injected as an aqueous solution, in the proportion of 2.5 ml of solution per kg, in the course of 30 seconds. At time T=60 seconds, or 30 seconds after completing the injection, aconitine is perfused at the rate of 20 μg per minute until […] extrasystoles appear. The perfusion time of the aconitine is noted. The results are expressed as an ED50, i.e. the dose of the product under test in mg/kg which increases by 50% the perfusion time of aconitine relative to control animals.

Q: For `NC(CCC1CCNCC1)c1ccc2ccccc2c1` (stereo not drawn) [Example 9, 1-(2-Naphthyl)-3-(4-piperidyl)-1-propanamine], which ED50 is on record?
A: < 0.3 mg/kg

same assay, conditions: {}

Q: How did the “ED50 (dose which increases by 50% the perfusion time of aconitine relative to control animals)” value turn out when `O=C(CCC1CCNCC1)c1ccc2ccccc2c1` [Example 1, 1-(2-Naphthyl)-3-(4-piperidyl)-1-propanone] was run?
A: 4 mg/kg i.v.

Q: Which “ED50 (dose which increases by 50% the perfusion time of aconitine relative to control animals)” value does the source give for `O=C(CCC1CCNCC1)c1cccc2ccccc12` [Example 2, 1-(1-Naphthyl)-3-(4-piperidyl)-1-propanone] here?
A: 3.8 mg/kg i.v.

Q: `COc1cc2ccnc(C(=O)CCC3CCNCC3)c2cc1OC` [Example 3, 1-(6,7-Dimethoxy-1-isoquinolyl)-3-(4-piperidyl)-1-propanone] was tested. Which “ED50 (dose which increases by 50% the perfusion time of aconitine relative to control animals)” value did it give?
A: 2.1 mg/kg i.v.

Q: With `OC(CCC1CCNCC1)c1cccc2ccccc12` (stereo not drawn) [Example 5, 1-(1-Naphthyl)-3-(4-piperidyl)-1-propanol] as the compound, how does the “ED50 (dose which increases by 50% the perfusion time of aconitine relative to control animals)” value read?
A: 1.42 mg/kg i.v.

Q: `OC(CCC1CCNCC1)c1nccc2ccccc12` (stereo not drawn) [Example 6, 1-(1-Isoquinolyl)-3-(4-piperidyl)-1-propanol] was tested. Which “ED50 (dose which increases by 50% the perfusion time of aconitine relative to control animals)” value did it give?
A: 2.7 mg/kg i.v.

Q: `COc1cc2ccnc(C(O)CCC3CCNCC3)c2cc1OC` (stereo not drawn) [Example 7, 1-(6,7-Dimethoxy-1-isoquinolyl)-3-(4-piperidyl)-1-propanol] was tested. Which “ED50 (dose which increases by 50% the perfusion time of aconitine relative to control animals)” value did it give?
A: 2.5 mg/kg i.v.

Q: For `CC(C)(C)c1nc(C(O)CCC2CCNCC2)c2ccccc2n1` (stereo not drawn) [Example 8, 1[2-(1,1-Dimethylethyl)-4-quinazolinyl]-3-(4-piperidyl)-1-propanol], which “ED50 (dose which increases by 50% the perfusion time of aconitine relative to control animals)” value is on record?
A: 1 mg/kg i.v.

Q: With `C=C[C@H]1C[N@@]2CC[C@H]1C[C@@H]2[C@@H](O)c1ccnc2ccc(OC)cc12` [Quinidine, reference compound] as the compound, how does the “ED50 (dose which increases by 50% the perfusion time of aconitine relative to control animals)” value read?
A: 7.5 mg/kg i.v.
